{"source": "patent US11246929B2", "about": "“Combination of a protein kinase inhibitor and an additional chemotherapeutic agent” (Merck Patent GmbH, priority 2016, dated 2022)", "experiment_in_all_cases": "SRB growth inhibition, 93 cell lines panel", "format_in_all_cases": "cell-based", "key": {"MDAMB231": {"system": "MDAMB231", "details": "Homo sapiens, MDA-MB-231; MDAMB231, breast; read-out: GI50 of etoposide (±Compound 1)", "method": "(§1) 90 μl of cells, after a 48-hour pre-growth period, were treated by mixing with 10 μl of the compound-containing media (resulting in a final DMSO concentration of 0.1%).\n(§2) This is the drug concentration causing a 50% reduction compared to the net protein increase in control cells during the drug incubation period. In other words, G150 is IC50 corrected for time zero. […] TGI was calculated from Ti=Tz. […] It was calculated as 100×[(Ti−Tz)/Tz]=−50."}, "PANC1": {"system": "PANC1", "details": "Homo sapiens, PANC-1; PANC1, pancreas; read-out: GI50 of etoposide (±Compound 1)", "method": "as §1, §2"}, "SKOV3": {"system": "SKOV3", "details": "Homo sapiens, SK-OV-3; SKOV3, ovary; read-out: GI50 of etoposide (±Compound 1)", "method": "as §1, §2"}, "SKBR3": {"system": "SKBR3", "details": "Homo sapiens, SK-BR-3; SKBR3, breast; read-out: GI50 of etoposide (±Compound 1)", "method": "as §1, §2"}, "MINO": {"system": "MINO", "details": "Homo sapiens, hematological, read-out: GI50 of etoposide (±Compound 1)", "method": "as §1, §2"}, "NCIH460": {"system": "NCIH460", "details": "Homo sapiens, NCI-H460; NCIH460, lung; read-out: GI50 of etoposide (±Compound 1)", "method": "as §1, §2"}, "SAOS2": {"system": "SAOS2", "details": "Homo sapiens, SAOS-2; SAOS2, bone; read-out: GI50 of etoposide (±Compound 1)", "method": "as §1, §2"}, "GRANTA-519": {"system": "GRANTA-519", "details": "Homo sapiens; GRANTA-519, hematological; read-out: GI50 of etoposide (±Compound 1)", "method": "as §1, §2"}, "A431": {"system": "A431", "details": "Homo sapiens, A-431; A431, skin; read-out: GI50 of etoposide (±Compound 1)", "method": "as §1, §2"}, "OVCAR3": {"system": "OVCAR3", "details": "Homo sapiens, OVCAR-3; OVCAR3, ovary; read-out: GI50 of etoposide (±Compound 1)", "method": "as §1, §2"}, "HT29": {"system": "HT29", "details": "Homo sapiens, HT-29; HT29, colon; read-out: GI50 of etoposide (±Compound 1)", "method": "as §1, §2"}, "J82": {"system": "J82", "details": "Homo sapiens; J82, bladder; read-out: GI50 of etoposide (±Compound 1)", "method": "as §1, §2"}, "22RV1": {"system": "22RV1", "details": "Homo sapiens; 22RV1, prostate; read-out: GI50 of etoposide (±Compound 1)", "method": "as §1, §2"}, "DU145": {"system": "DU145", "details": "Homo sapiens, DU-145; DU145, prostate; read-out: GI50 of etoposide (±Compound 1)", "method": "as §1, §2"}, "PC3": {"system": "PC3", "details": "Homo sapiens, PC-3; PC3, prostate; read-out: GI50 of etoposide (±Compound 1)", "method": "as §1, §2"}, "NCIH358M": {"system": "NCIH358M", "details": "NCI-H358M, lung, read-out: GI50 of etoposide (±Compound 1)", "method": "as §1, §2"}, "KASUMI-1": {"system": "KASUMI-1", "details": "Homo sapiens; KASUMI-1, hematological; read-out: GI50 of etoposide (±Compound 1)", "method": "as §1, §2"}, "SKMEL5": {"system": "SKMEL5", "details": "Homo sapiens, SK-MEL-5; SKMEL5, skin; read-out: GI50 of etoposide (±Compound 1)", "method": "as §1, §2"}, "ASPC1": {"system": "ASPC1", "details": "Homo sapiens; ASPC1, pancreas; read-out: GI50 of etoposide (±Compound 1)", "method": "as §1, §2"}, "786O": {"system": "786O", "details": "Homo sapiens, 786-0, kidney, read-out: GI50 of etoposide (±Compound 1)", "method": "as §1, §2"}, "BT20": {"system": "BT20", "details": "Homo sapiens, BT-20; BT20, breast; read-out: GI50 of etoposide (±Compound 1)", "method": "as §1, §2"}, "NCIH292": {"system": "NCIH292", "details": "Homo sapiens, NCI-H292; NCIH292, lung; read-out: GI50 of etoposide (±Compound 1)", "method": "as §1, §2"}, "K-562": {"system": "K-562", "details": "Homo sapiens, K562; K-562, hematological; read-out: GI50 of etoposide (±Compound 1)", "method": "as §1, §2"}, "HS578T": {"system": "HS578T", "details": "Homo sapiens, Hs-578T, breast, read-out: GI50 of etoposide (±Compound 1)", "method": "as §1, §2"}, "15M15C3": {"system": "15M15C3", "details": "15M15C3, bladder; read-out: GI50 of etoposide (±Compound 1)", "method": "as §1, §2"}, "JAR": {"system": "JAR", "details": "placenta, read-out: GI50 of etoposide (±Compound 1)", "method": "as §1, §2"}, "L-363": {"system": "L-363", "details": "Homo sapiens; L-363, hematological; read-out: GI50 of etoposide (±Compound 1)", "method": "as §1, §2"}, "152OS": {"system": "152OS", "details": "bone, read-out: GI50 of etoposide (±Compound 1)", "method": "as §1, §2"}, "HS729": {"system": "HS729", "details": "HS729, muscle; read-out: GI50 of etoposide (±Compound 1)", "method": "as §1, §2"}, "PBMC": {"system": "PBMC", "details": "hematological, read-out: GI50 of etoposide (±Compound 1)", "method": "as §1, §2"}, "MG63": {"system": "MG63", "details": "Homo sapiens, MG-63; MG63, bone; read-out: GI50 of etoposide (±Compound 1)", "method": "as §1, §2"}}, "data": [{"smiles": "COc1cc([C@@H]2c3cc4c(cc3[C@@H](O[C@@H]3O[C@@H]5CO[C@@H](C)O[C@H]5[C@H](O)[C@H]3O)[C@H]3COC(=O)[C@H]23)OCO4)cc(OC)c1O", "note": "[Etoposide]", "values": [{"measurement": "GI50", "setting": "MDAMB231", "value": 1940, "unit": "nM"}, {"measurement": "GI50", "setting": "PANC1", "value": 1920, "unit": "nM"}, {"measurement": "GI50", "setting": "SKOV3", "value": 2990, "unit": "nM"}, {"measurement": "GI50", "setting": "SKBR3", "value": 432, "unit": "nM"}, {"measurement": "GI50", "setting": "MINO", "value": 236, "unit": "nM"}, {"measurement": "GI50", "setting": "NCIH460", "value": 167, "unit": "nM"}, {"measurement": "GI50", "setting": "SAOS2", "value": 1460, "unit": "nM"}, {"measurement": "GI50", "setting": "GRANTA-519", "value": 247, "unit": "nM"}, {"measurement": "GI50", "setting": "A431", "value": 1520, "unit": "nM"}, {"measurement": "GI50", "setting": "OVCAR3", "value": 2540, "unit": "nM"}, {"measurement": "GI50", "setting": "HT29", "value": 2220, "unit": "nM"}, {"measurement": "GI50", "setting": "J82", "value": 7930, "unit": "nM"}, {"measurement": "GI50", "setting": "22RV1", "value": 234, "unit": "nM"}, {"measurement": "GI50", "setting": "DU145", "value": 701, "unit": "nM"}, {"measurement": "GI50", "setting": "PC3", "value": 5240, "unit": "nM"}, {"measurement": "GI50", "setting": "NCIH358M", "value": 3330, "unit": "nM"}, {"measurement": "GI50", "setting": "KASUMI-1", "value": 494, "unit": "nM"}, {"measurement": "GI50", "setting": "SKMEL5", "value": 558, "unit": "nM"}, {"measurement": "GI50", "setting": "ASPC1", "value": "> 10000", "unit": "nM"}, {"measurement": "GI50", "setting": "786O", "value": 928, "unit": "nM"}, {"measurement": "GI50", "setting": "BT20", "value": 73, "unit": "nM"}, {"measurement": "GI50", "setting": "NCIH292", "value": 1650, "unit": "nM"}, {"measurement": "GI50", "setting": "K-562", "value": 277, "unit": "nM"}, {"measurement": "GI50", "setting": "HS578T", "value": 874, "unit": "nM"}, {"measurement": "GI50", "setting": "15M15C3", "value": 604, "unit": "nM"}, {"measurement": "GI50", "setting": "JAR", "value": 116, "unit": "nM"}, {"measurement": "GI50", "setting": "L-363", "value": 327, "unit": "nM"}, {"measurement": "GI50", "setting": "152OS", "value": 1080, "unit": "nM"}, {"measurement": "GI50", "setting": "HS729", "value": 730, "unit": "nM"}, {"measurement": "GI50", "setting": "PBMC", "value": "> 10000", "unit": "nM"}, {"measurement": "GI50", "setting": "MG63", "value": 1020, "unit": "nM"}]}]}
